Results: patent publication US20150306096A1, “8'-HYDROXY-DIHYDROERGOTAMINE COMPOUNDS AND COMPOSITIONS” (MAP Pharmaceuticals, Inc., priority 2012, published 2015)
Where two headings read alike, the source gives them in different places.

What was measured:
[1] = target: T1, human 5-HT1A receptor (Homo sapiens, UniProt P08908); assay: Radioligand competition binding and kinetics, CHO-K1 membranes
T1 construct: purchased Euroscreen; host or cells: CHO-K1
T1 sequence (P08908 1-422): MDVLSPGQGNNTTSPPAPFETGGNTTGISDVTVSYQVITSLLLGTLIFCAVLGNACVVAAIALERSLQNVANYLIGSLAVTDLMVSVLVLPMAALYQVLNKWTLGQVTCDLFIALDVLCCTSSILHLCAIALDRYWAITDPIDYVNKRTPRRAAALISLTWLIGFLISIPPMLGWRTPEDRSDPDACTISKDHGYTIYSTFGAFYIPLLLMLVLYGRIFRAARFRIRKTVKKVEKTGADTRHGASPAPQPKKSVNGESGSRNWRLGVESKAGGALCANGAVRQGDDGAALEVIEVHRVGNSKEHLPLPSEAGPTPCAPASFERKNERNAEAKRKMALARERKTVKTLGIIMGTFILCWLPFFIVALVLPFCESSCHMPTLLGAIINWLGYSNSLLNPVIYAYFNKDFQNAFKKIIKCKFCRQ
Protocol: For kinetics of radioligand competitive binding, serial dilutions were performed from master solution in 100% DMSO to obtain intermediate concentrations 200-fold higher than the concentrations to be tested. Each test sample was diluted 100-fold in the assay buffer and dispensed into the test plate.
Determination of the Kon constant. Radioligand association kinetics on each receptor were performed by adding in the wells of a 96 well plate 50 μL of radioligand and 50 μL of membrane extracts. The samples were incubated for the times reported in Table 3 below at a temperature optimized for each receptor and filtered over a filter plate. After washing the filters 5 times with 0.5 mL of ice-cold washing buffer, 50 μL of Microscint 20 (Packard) were added to the filters and the plates were incubated 15 min on an orbital shaker and then counted for 1 min/well. This allowed determination of the kobs for each radioligand. […] The different kobs were then plotted against the [radioligand] and the K. was calculated using the following equation: kon=(kobs−koff)[radioligand].
Determination of the Koff constant. […] The samples were incubated as reported in Table 4 below at a temperature optimized for each receptor until binding equilibrium was reached as determined by the association kinetics experiment. […] After washing the filters 5 times with 0.5 mL of ice-cold washing buffer, 50 μL of Microscint 20 (Packard) were added to the filters and the plates were incubated 15 min on an orbital shaker and then counted for 1 min/well. […]
Determination of IC50 and Ki constant for each test compound. […] After washing the filters 5 times with 0.5 mL of ice-cold washing buffer, 50 μL of Microscint 20 (Packard) were added to the filters and the plates were incubated 15 min on an orbital shaker and then counted for 1 min/well. […]
Determination of kon and koff constants for each test compound. Each compound was first assessed in a pilot experiment to evaluate its effect on the kinetic binding of each receptor-radioligand pair. […]

[2] = target: T2, human Serotonin 5-HT4e receptor (Homo sapiens, UniProt Q13639); assay: cAMP HTRF functional assay (agonist/antagonist); format: cell-based
T2 construct: expressed in transfected cells; host or cells: CHO-K1 (transient)
Protocol: Functional profiling of agonist and antagonist activities of 8′-OH DHE on human Adrenergic α1D, Dopamine D2L, and Serotonin 5-HT1B, 5-HT1D, 5-HT1F, 5-HT3, 5-HT4e and 5-HT5A receptors (compared against the parent (DHE) molecule) was carried out as follows.
The SPA 35S-GTPγS tests were conducted with Euroscreen membrane preparations […]. The HTRF assays were conducted with recombinant cell lines. The receptor accession numbers, cellular background and reference compounds are as reported below in Table 10.
(4) DHE and 8′-OH DHE were tested for agonist and antagonist activity at the human Serotonin 5-HT1F and Serotonin 5-HT4E receptors using cAMP HTRF assay (in triplicate) at the following nanomolar concentrations: […]
Agonist activity of the test compounds was expressed as a percentage of the activity of the reference agonist at its EC100 concentration. Antagonist activity of the test compounds was expressed as a percentage of the inhibition of the reference agonist activity at its EC80 concentration. Dose-response data from the test compounds were analyzed with XLfit (IDBS) software using nonlinear regression applied to a sigmoidal dose-response model and the following equation: […]

T2 sequence (Q13639 1-378 isoform Q13639-5): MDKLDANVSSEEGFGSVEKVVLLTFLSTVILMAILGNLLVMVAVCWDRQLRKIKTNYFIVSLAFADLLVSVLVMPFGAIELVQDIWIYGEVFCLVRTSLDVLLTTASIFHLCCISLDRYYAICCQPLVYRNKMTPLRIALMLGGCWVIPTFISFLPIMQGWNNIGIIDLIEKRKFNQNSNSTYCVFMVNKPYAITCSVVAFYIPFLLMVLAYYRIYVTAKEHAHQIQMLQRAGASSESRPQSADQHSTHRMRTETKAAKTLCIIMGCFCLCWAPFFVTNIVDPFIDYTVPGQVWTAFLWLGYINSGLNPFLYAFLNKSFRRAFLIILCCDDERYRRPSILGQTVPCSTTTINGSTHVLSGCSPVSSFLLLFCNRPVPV

Which IC50 [1] does the source give for `CN1C[C@H](C(=O)N[C@]2(C)O[C@@]3(O)[C@@H]4CCCN4C(=O)[C@H](Cc4ccccc4)N3C2=O)C[C@@H]2c3cccc4[nH]cc(c34)C[C@H]21` [DHE, Dihydroergotamine] here?
Its IC50 is 0.27 nM.

What about the EC50 [2] of the same molecule?
The EC50 was 105 nM.

With `CN1C[C@H](C(=O)N[C@]2(C)O[C@@]3(O)[C@@H]4CCC(O)N4C(=O)[C@H](Cc4ccccc4)N3C2=O)C[C@@H]2c3cccc4[nH]cc(c34)C[C@H]21` (stereo partly shown) [8′-OH DHE, 8′-Hydroxy-Dihydroergotamine] as the molecule, how does the IC50 ([1]; 5-HT1A, [3H]-WAY100635, read-out: IC50 from binding assay) read?
Its IC50 is 0.43 nM.

What about the EC50 ([2]; Serotonin 5-HT4e, cAMP HTRF, read-out: Functional activity (agonist)) of the same molecule?
Its EC50 is 109 nM.
